One compound from US8426369B2, “Prevention and treatment of colon cancer” (Rutgers, The State University of New Jersey, priority 2006, dated 2013) can be followed below.

The structures appear in SMILES notation.

What all share (type): cell-based, human
One test deals with TGF-β ligands. Nature of the test: Induction of TGF-β ligands in HT-29 cells. The settings on record: HT-29, data not shown. An excerpt:
The significance of the transforming growth factor (TGF-β) pathway in down-regulating iNOS expression by pterostilbene was also investigated since TGF-β is a very potent inhibitor of iNOS and cytokines regulate Smad signaling of the TGF-β pathway. However, there was no effect of pterostilbene on activated Smad levels (p-Smad3) or in inducing TGF-β ligands (data not shown).

A further test deals with p38. Nature of the test: Western blot of phosphorylated p38 in cytokine-treated HT-29 cells. How it is done: (§1) The cell culture conditions and the reagents used in this example were described in Example 32. Whole cell extracts were collected after the various treatments and analyzed by western blotting. The protein samples were separated on 4-15% SDS-PAGE gels (Biorad, Hercules, Calif.) followed by transfer to a polyvinylidene fluoride membrane. The membranes were blocked with 5% milk in Tris buffer for 1 h and then incubated with the appropriate primary antibody solutions overnight at 4° C. The membranes were washed with Tris buffer, and incubated with horseradish peroxidase conjugated secondary antibody solutions for 1 h at room temperature.
(§2) The protein bands were visualized using a chemiluminescence based kit from Amersham Biosciences (Buckinghamshire, UK). The primary antibodies against iNOS, COX-2, IκBα, cyclin D1, c-myc (Santa Cruz Bio-technology, Santa Cruz, Calif.), phospho-STAT3, phospho-Erk1/2, phospho-JNK1/2, phospho-p38, phospho-Akt, phospho-ATF2, phospho-Elk1, PARP (Cell Signaling Technology Inc., Beverly, Mass.) and actin (Sigma, St. Louis, Mo.) and secondary antibodies (Santa Cruz Biotechnology, Santa Cruz, Calif.) were used for probing the abundance of the target protein in the samples.
On the technique in general: Immunoblotting shows a protein as a band on a membrane.

The subject of another test is iNOS mRNA. Kind of test: Quantitative RT-PCR of cytokine-induced iNOS mRNA in HT-29 cells. The settings on record: 10 and 30 μM. How it is done:
(§3) The cell culture conditions and the reagents used in this example were described in Example 32. The gene-mediated expression of iNOS and COX-2 are reported to be regulated at both the transcriptional and translational levels. In order to understand the effect of pterostilbene on cytokine-induced expression of proinflammatory enzymes and cytokines, RNA samples after treatment of HT-29 cells with cytokines and/or pterostilbene were analyzed by quantitative RT-PCR for the induction of mRNA levels of iNOS, COX-2, IL-1β, IFN-γ and TNF-α genes.
(§4) To determine the changes of mRNA levels by pterostilbene and cytokines, quantitative RT-PCR analysis was utilized, as described previously (Lee et al., Mol Pharmacol 2006; 69(6):1840-1848). Briefly, the cells were incubated with compounds for indicated period and the cells were then lysed using Trizol to extract RNA. RNA was reverse transcribed into cDNA using a high capacity cDNA archive kit (Applied Biosystems, Foster City, Calif.). The cDNA was used for quantitative PCR which was run on the ABI Prism […] sequence Detection System. The primers for the iNOS, COX-2, IFN-γ, TNF-α, IL-1β and GAPDH were obtained from Applied Biosystems (Foster City, Calif.).

In the next test the test system is COX-2. Kind of test: Cytokine-induced COX-2 protein expression in HT-29 cells (Western blot). How it is done:
(§5) Human colon carcinoma cell lines HT-29 was obtained from the American Type Culture Collection (Manassas, Va.). The cells were maintained in Dulbecco's modification of Eagle's medium (DMEM) supplemented with 10% FBS and 1% penicillin/streptomycin at 37° C. and 5% CO2. The cytokine mixture, consisting of 10 ng/ml of TNF-α, IFN-γ and LPS, was used to induce iNOS and COX-2, unless otherwise mentioned. The cells were treated with the test compound either alone or in combination with cytokines for different time intervals and harvested for protein or RNA.
as §1
The protein bands were visualized using a chemiluminescence based kit from Amersham Biosciences (Buckinghamshire, UK). […]

For a further test, the system named is TNF-α mRNA. Nature of the test: Quantitative RT-PCR of cytokine-induced TNF-α mRNA in HT-29 cells. How it is done: as §3, §4
The subject of a further test is iNOS. Kind of test: Cytokine-induced iNOS protein expression in HT-29 cells (Western blot). The settings on record: HT-29; for inhibition of iNOS expression: with cytokine mixture (each 10 ng/ml), 15 hr. How it is done: HT-29 human colon adenocarcinoma cells were grown in 10% FBC/DMEM. Cells (about 600,000 cells/well) were plated in 6-well plate and treated with stilbene analogs shown in FIG. 4 (each at 10 μM) for 15 hours together with cytokine mixture comprising TNF-a, IFN0g, and LPS (each at 10 ng/ml). Cell lysates were prepared and subjected to Western Blot analysis.
as §5, §1, §2

Another test has as its system HT-29 cells. Nature of the test: [3H]Thymidine incorporation cell proliferation assay in HT-29 cells. The settings on record: Homo sapiens, HT-29, 30 μM at 3 days, read-out: inhibition of DNA synthesis. How it is done:
The stilbenes illustrated in FIG. 4 were also used to investigate their ability to inhibit cell proliferation in HT-29 cell line. In this experiment, HT-29 cells (20,000 cells/well in 24-well plate) were treated with the respective stilbenes (each used either at 30 μM or 3 μM) in 10% FBS/DMEM for three days.
as §5
HT-29 cells were plated at a density of 20,000 cells/well in a 24 well plate and treated with varying concentrations of pterostilbene for a period of 1, 2 or 3 days at 37° C. Before harvest, the cells were incubated with 1 μCi [^3H]thymidine for 4 h at 37° C. and were washed with phosphate buffered saline. The cells were precipitated with cold 10% trichloroacetic acid for 10 min and solubilized with 0.5 ml solubilization buffer (0.2 M NaOH, 40 μg/ml salmon sperm DNA) for 2 h at room temperature. The lysate was transferred to 5 ml Ecolume and the [3H]thymidine incorporated into the DNA of HT-29 cells was determined using a scintillation spectrometer (Beckman Coulter, Fullerton, Calif.).

Broadly, the inhibition is the share of the control response that was lost under treatment.

In the case of `COc1cc(/C=C/c2ccc(O)cc2)cc(OC)c1` [pterostilbene, (E)-4-(3,5-dimethoxystyryl)phenol], the “inducing TGF-β ligands” value in the test with TGF-β ligands is “no effect”. Besides, in the test on p38, the “activation of p38 by cytokines” value was “strongly inhibited”. Further, the “iNOS mRNA induction by the cytokine mixture” value in the test with iNOS mRNA is “strongly inhibited”. Moreover, in the test on COX-2 (30 μM, 9, 12 and 15 h), the “induction of COX-2 by the cytokine mixture” value is listed as “markedly blocked”. In addition, the “induction of COX-2 by the cytokine mixture, different concentrations” value in the test with COX-2 (different concentrations) is listed as “dose-dependent manner”. Besides, the “TNF-α mRNA induction by the cytokine mixture” value in the test on TNF-α mRNA is on record as “weak inhibitory effect”. Besides, the “inhibition of iNOS expression” value with iNOS (1 μM) turned out to be 14%; in the test with iNOS (10 μM) it was 61%; in the test on iNOS (30 μM), 77%. Further, the “induction of iNOS by the cytokine mixture” value in the test with iNOS (30 μM, 9, 12 and 15 h) is listed as “markedly blocked”. Moreover, the “induction of iNOS by the cytokine mixture, different concentrations” value in the test on iNOS (different concentrations) is listed as “dose-dependent manner”. For the same compound, the inhibition at 30 µM with HT-29 cells was determined as 71 ± 3%.
